Reference: the supplement of paper PMC10331698
± gives the standard deviation of the averaged measurements.

Columns and labels:
Assay in all cases: LOEC (log10 uM (lowest observed effect concentration))
[1] = compound: OCCCC(F)(F)C(F)(F)C(F)(F)C(F)(F)C(F)(F)C(F)(F)C(F)(F)F [7:3 Fluorotelomer alcohol]
Method: (§1)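 BioMAP Diversity Plus panel in human primary cell co-cultures, 4 concentrations in duplicate blinded samples. Responses are log10 fold change versus DMSO control, processed with tcpl v2.1.0. A hit is called when responses at any concentration exceed the cutoff (the larger of 3*bmad or log10(1.2)); the lowest observed effect concentration (modl_ga, log10 uM) is reported for hits.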

[2] = compound: O=C(O)C(F)(F)C(F)(F)C(F)(F)C(F)(F)C(F)(F)C(F)(F)C(F)(F)C(F)(F)C(F)(F)F [Perfluorodecanoic acid]
Method: as §1

[3] = compound: C[N+](C)(C)CCCNS(=O)(=O)C(F)(F)C(F)(F)C(F)(F)C(F)(F)C(F)(F)C(F)(F)C(F)(F)C(F)(F)F [Perfluorooctanesulfonamido ammonium iodide]
Method: as §1

[4] = compound: CCN(CCO)S(=O)(=O)C(F)(F)C(F)(F)C(F)(F)C(F)(F)C(F)(F)C(F)(F)C(F)(F)C(F)(F)F [N-Ethyl-N-(2-hydroxyethyl)perfluorooctanesulfonamide]
Method: as §1

Row | Test System | LOEC (log10 uM) [1] | LOEC (log10 uM) [2] | LOEC (log10 uM) [3] | LOEC (log10 uM) [4]
1 | 3C Eselectin down | 1.54 ± 0.34 | 1.78 |  | 
2 | 3C IL8 down | 1.78 | 1.78 | 1.78 | 
3 | 3C Thrombomodulin up |  |  |  | 1.3
4 | 3C TissueFactor up |  |  | 1.78 | 
5 | 3C VCAM1 down | 1.3 | 1.78 |  | 
6 | 4H MCP1 down | 1.78 | 1.78 |  | 
7 | 4H SRB down | 1.78 | 1.78 |  | 1.54 ± 0.34
8 | 4H VCAM1 down | 1.78 | 1.78 |  | 
9 | 4H VEGFRII down | 1.78 | 1.78 |  | 
10 | 4H VEGFRII up |  |  | 1.78 | 
11 | 4H uPAR down | 1.78 | 1.78 |  | 
12 | BE3C EGFR down | 1.78 |  |  | 1.78
13 | BE3C ICAM1 down | 1.78 | 1.3 |  | 
14 | BE3C IL1a down | 1.78 | 1.3 |  | 1.54 ± 0.34
15 | BE3C ITAC down | 1.78 | 1.3 |  | 1.78
16 | BE3C Keratin818 down | 1.78 | 1.3 |  | 
17 | BE3C MIG down | 1.78 | 1.3 |  | 1.78
18 | BE3C MMP1 down | 1.78 | 1.3 |  | 
19 | BE3C MMP9 down | 1.78 | 1.3 |  | 1.54 ± 0.34
20 | BE3C PAI1 down | 1.78 | 1.3 |  | 1.78
21 | BE3C SRB down | 1.78 | 1.3 |  | 1.78
22 | BE3C tPA down | 1.78 | 1.3 | 1.78 | 
23 | BE3C uPA down | 1.78 | 1.3 |  | 1.78
24 | BE3C uPAR down | 1.78 | 1.3 |  | 1.78

Row | Test System | LOEC (log10 uM) [1] | LOEC (log10 uM) [2] | LOEC (log10 uM) [3] | LOEC (log10 uM) [4]
25 | BF4T CD90 down | 1.78 | 1.3 |  | 
26 | BF4T IL1a down | 1.78 | 1.54 ± 0.34 | 1.78 | 
27 | BF4T IL8 down | 1.78 |  |  | 
28 | BF4T Keratin818 down | 1.78 | 1.3 | 1.78 | 
29 | BF4T MMP1 down |  | 1.3 |  | 
30 | BF4T MMP3 down | 1.78 | 1.54 ± 0.34 |  | 
31 | BF4T MMP3 up |  |  | 1.78 | 1.78
32 | BF4T MMP9 down | 1.78 | 1.3 | 1.78 | 
33 | BF4T SRB down | 1.78 | 1.3 |  | 
34 | BF4T VCAM1 down | 1.78 | 1.3 |  | 
35 | BF4T tPA up |  |  |  | 1.78
36 | BF4T uPA down | 1.78 | 1.3 |  | 
37 | BT Bcell Proliferation down | 1.3 |  |  | 1.54 ± 0.34
38 | BT sIgG down | 1.54 ± 0.34 |  | 1.78 | 1.3
39 | BT xIL2 down | 1.3 |  | 1.78 | 1.3
40 | BT xIL6 down | 1.3 |  |  | 1.78
41 | CASM3C HLADR down | 1.54 ± 0.34 |  |  | 1.54 ± 0.34
42 | CASM3C IL6 down | 1.78 |  |  | 
43 | CASM3C LDLR down | 1.78 |  |  | 1.07 ± 0.32
44 | CASM3C LDLR up |  |  | 1.54 ± 0.34 | 
45 | CASM3C MCP1 down | 1.3 |  |  | 
46 | CASM3C MCSF down | 1.54 ± 0.34 |  |  | 
47 | CASM3C MIG down | 1.3 |  |  | 1.3
48 | CASM3C PAI1 down | 1.78 |  |  | 

Row | Test System | LOEC (log10 uM) [1] | LOEC (log10 uM) [2] | LOEC (log10 uM) [3] | LOEC (log10 uM) [4]
49 | CASM3C SAA down | 1.78 |  |  | 
50 | CASM3C SRB down | 1.54 ± 0.34 |  |  | 1.3
51 | CASM3C Thrombomodulin up |  |  |  | 1.3
52 | CASM3C VCAM1 down | 1.3 | 1.78 |  | 1.07 ± 0.32
53 | CASM3C uPAR down | 1.78 |  |  | 1.54 ± 0.34
54 | IMphg ESelectin down |  | 1.78 |  | 
55 | IMphg ESelectin up |  |  |  | 0.845
56 | IMphg IL8 down |  |  | 1.54 ± 0.34 | 
57 | IMphg MCP1 down | 1.78 | 1.78 |  | 
58 | IMphg MIP1a down |  | 1.78 | 1.78 | 
59 | IMphg MIP1a up | 1.78 |  |  | 1.3
60 | IMphg SRB.Mphg down |  | 1.78 | 1.04 ± 1 | 
61 | IMphg VCAM1 down |  | 1.78 | 1.54 ± 0.34 | 
62 | KF3CT ICAM1 down | 1.54 ± 0.34 | 1.78 |  | 
63 | KF3CT IL1a down | 1.54 ± 0.34 | 1.78 |  | 1.3
64 | KF3CT IL8 down | 1.78 |  |  | 0.845
65 | KF3CT MCP1 down | 1.54 ± 0.34 | 1.07 ± 0.32 |  | 
66 | KF3CT MIG down | 1.54 ± 0.34 | 1.78 |  | 1.78
67 | KF3CT SRB down | 1.54 ± 0.34 | 1.78 | 1.78 | 
68 | KF3CT TIMP2 down | 1.3 | 1.78 |  | 
69 | KF3CT uPA down | 1.54 ± 0.34 | 1.78 |  | 1.78
70 | LPS CD69 down | 1.78 | 1.78 |  | 0.845
71 | LPS Eselectin down | 1.78 | 1.78 |  | 
72 | LPS IL8 down | 1.78 | 1.78 | 1.3 | 

Row | Test System | LOEC (log10 uM) [1] | LOEC (log10 uM) [2] | LOEC (log10 uM) [3] | LOEC (log10 uM) [4]
73 | LPS MCP1 down | 1.54 ± 0.34 | 1.78 |  | 1.78
74 | LPS MCSF down | 1.78 | 1.78 | 1.78 | 
75 | LPS PGE2 down |  | 1.78 | 1.3 | 
76 | LPS TNFa down | 1.54 ± 0.34 | 1.78 | 1.3 | 
77 | LPS Thrombomodulin down | 1.78 | 1.78 |  | 
78 | LPS Thrombomodulin up |  |  |  | 0.573 ± 0.39
79 | LPS TissueFactor down | 1.78 | 1.78 |  | 
80 | LPS TissueFactor up |  |  |  | 1.07 ± 0.32
81 | MyoF CollagenIV down | 1.78 |  |  | 
82 | MyoF Decorin down | 1.78 | 1.78 |  | 
83 | MyoF Decorin up |  |  | 1.07 ± 0.32 | 
84 | MyoF IL8 down |  |  |  | 0.845
85 | MyoF TIMP1 down | 1.78 | 1.78 |  | 
86 | MyoF bFGF down | 1.78 | 1.78 | 1.78 | 
87 | SAg CD38 down | 1.54 ± 0.34 | 1.78 |  | 1.3
88 | SAg CD69 down | 1.78 | 1.78 |  | 1.54 ± 0.34
89 | SAg Eselectin down | 1.78 | 1.78 |  | 
90 | SAg IL8 down | 1.54 ± 0.34 | 1.78 |  | 
91 | SAg MCP1 down | 1.54 ± 0.34 | 1.78 |  | 1.54 ± 0.34
92 | SAg MIG down | 1.78 | 1.78 |  | 
93 | hDFCGF CollagenIII down | 1.3 | 1.78 | 1.07 ± 0.32 | 
94 | hDFCGF EGFR down | 1.3 |  |  | 
95 | hDFCGF MCSF up |  |  | 1.78 | 
96 | hDFCGF TIMP2 up |  |  | 1.07 ± 0.32 | 0.845
